Consider 2 compounds from patent US20230117920A1, “Library Construction Method, Cyclic Peptide, FXIIa Binder and IFNGR1 Binder” (The University of Tokyo, priority 2019, published 2023).

pKi: −log10 of the molar value. Positions of bridges follow the written chain, without caps; N, C: chain ends. Non-standard residues stand in square brackets, D forms with d. Residues, ends and D or L forms follow the SMILES beside them.

Test [1] has as its target T1, interferon γ receptor 1 (IFNGR1) (Homo sapiens, UniProt P15260). Nature of the test: biochemical. Particulars: read-out: ka.
In test [2] the target is T1, interferon γ receptor 1 (IFNGR1). The settings on record: SPR, 25° C., 1:1 interaction model. For orientation: SPR reads the build-up and loss of mass on a sensor chip optically.
Target sequence in this assay (P15260 18-245 limits assumed): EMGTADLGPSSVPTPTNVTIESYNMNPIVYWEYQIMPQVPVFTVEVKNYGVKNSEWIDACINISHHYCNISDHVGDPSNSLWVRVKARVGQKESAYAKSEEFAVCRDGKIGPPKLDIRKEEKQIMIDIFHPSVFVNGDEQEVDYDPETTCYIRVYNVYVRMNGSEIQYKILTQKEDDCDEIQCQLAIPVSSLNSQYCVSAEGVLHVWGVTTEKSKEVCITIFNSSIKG
Protocol: Recombinant biotinylated human FXIIa was purchased from Molecular Innovations. The recombinant human IgG1 Fc and Fc labeled human IFNGR1 were purchased from R&D systems and AcroBiosystems, respectively.
The binding kinetics of those peptides to FXIIA and IFNGR1 was analyzed by surface plasmon resonance. […] The binding affinity was analyzed at 25° C. by SPR by using a Biacore T200 apparatus (GE Healthcare). The peptides, each used at five different concentrations, were injected at a floe rate of 30 μL/min and the rate constant was measured by single cycle kinetics method. The binding sensorgrams thus obtained were analyzed using a Biacore evaluation software and was fitted to a standard 1:1 interaction model.
For the next test, the target named is FXIIa (Homo sapiens, UniProt P00748). Particulars: reference protein inhibitor against FXIIa; cited from earlier work.
FXIIa, sequence (P00748 373-615 limits assumed, other chains not shown): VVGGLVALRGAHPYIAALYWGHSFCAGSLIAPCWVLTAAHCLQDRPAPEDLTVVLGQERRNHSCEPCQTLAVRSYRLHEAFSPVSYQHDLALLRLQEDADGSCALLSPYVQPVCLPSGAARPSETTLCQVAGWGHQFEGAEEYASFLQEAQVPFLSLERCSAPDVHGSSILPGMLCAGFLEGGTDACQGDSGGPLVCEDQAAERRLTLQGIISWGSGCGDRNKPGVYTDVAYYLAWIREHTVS

Regarding `CC(C)[C@@H]1NC(=O)CNC(=O)[C@H](Cc2ccccc2)NC(=O)[C@@H](Cc2ccc(O)cc2)NC(=O)CSC[C@H](C(N)=O)NC(=O)[C@H]([C@@H](C)O)NC(=O)[C@H](CCCNC(=N)N)NC(=O)[C@H](CC(N)=O)NC(=O)[C@H](Cc2ccc(O)cc2)NC(=O)[C@H](Cc2ccccc2)NC(=O)[C@H](C)NC(=O)[C@H](CCCNC(=N)N)NC1=O` [I1-1A] ({CH2CO}-[dY]FGVRAFYNRT[dC]-NH2; thioether N-12), the kon in test [1] stood at 20000 M⁻¹ s⁻¹. The kd in test [2] was 4.12 10^−2 · s^−1.

As usually defined, the pKi is −log10 of the Ki, conventionally taken in molar units. Turning to corn trypsin inhibitor [CTI], the pKi on FXIIa is 7.62.
